What was measured:
[1] = system: diploidem Roggen Sorte Kharkovskaya 55; test: field test of gametocidal activity (sterilisation of anthers); format: in vivo; details: V. und VI. Periode, 1%ige wäßrige Emulsion, 6 kp/ha; for Prozentsatz des Ansetzens der Körner bei freier Bestäubung: control = 100
Description: (§1) Die gametozide Aktivität der erfindungsgemäßen Sterilisationsmittel war in Feldversuch in verschiedenen bodenklimatischen Zonen mit Teilstücken von 10 m^2 Größe in drei-- bis viermaliger Wiederholung nachgewiesen. Jedes Sterilisationsmittel wurde mindestens 5 Jahre lang geprüft.
(§2) Die Entwicklung der Perioden der Organogenese wird zytologisch überwacht. Die Behandlung von Pflanzen mit dem Sterilisationsmittel erfolgt am Anfang der fünften Periode der Organogenese nach Kupermann.
(§3) Mit dem Ahrenschieben verwirklicht man die Isolierung von Hauptähren und anderen Stockwerken in Pergamentbeuteln. Bei Weizen und Tritikale werden Einzelisolatoren verwendet. Bei Roggen schließt man je 1 Ähre von 5 bis 7 verschiedenen nebeneinander befindlichen Pflanzen in einen gemeinsamen Isolator ein. Bei Hirse wird jede Rispe getrennt isoliert. Der Sterilitätsprozentsatz (X) für Weizen, Roggen, Tritikale und Hirse wird nach der Formel [formula]
(§4) Samen von unbehandelten Kontrollpflanzen ermittelt.
(§5) Die Kornzahl in nicht isolierten Ähren von Kontrollpflanzen wird bedingt für 100% Ansetzen bei freier Bestäubung angenommen.
(§6) Um zuverlässige Angaben zu erhalten, verwendet man 20 bis 25 Isolatoren jeder Wiederholung für Weizen und Tritikale, 10 bis 15 Isolatoren jeder Wiederholung für Roggen und Hirse.
Pflanzen von diploidem Roggen Sorte Kharkovskaya 55 werden in der V. und VI. Periode der Organogenese (nach Kupermann) mit einer 1%igen wäßrigen Emulsion von Phthalsäuredibutylester, Phthalsäurediisobutylester, Phthalsäurediallylester, Phthalsäuredihexylester, 2-Methyl-3-zyklohexen- karbonsäuremethylester, Natriumsalz der 2-Methyl-3-zyklohex- enkarbonsäure behandelt. Die Emulsion enthält 0,01 Masse% Dimethylformamid und 0,1 Masse% C12C14-Kalziumalkylbenzolsulfonat.
Der Verbrauch an Präparat beträgt 6 kp/ha. Als Kontrolle dienen Pflanzen, benandelt mit einem Verdünner ohne Sterilisationsmittel.

[2] = system: diploidem Roggen Sorte Voskhod 2; test: as above; format: in vivo; details: V. Periode, 1%ige wäßrige Emulsion, 10 kg/ha; for Prozentsatz des Ansetzens der Körner bei freier Bestäubung: control = 100
Description: as §1, §2, §3, §4, §5, §6
Pflanzen von diploidem Roggen Sorte Voskhod 2 werden in der V. Periode der Organogenese (nach Kupermann) mit einer l%igen wäßrigen Emulsion von Phthalsäurediäthylester, Phthalsaurediisobutylester, Kaliumsalz der 2-Methyl-3-zyklohexen- karbonsäure, Ammoniumsalz der 2-Methyl-3-zyklohexenkarbon- säure, 2-Methyl-3-zyklohexenkarbonsäuremethylester, Phthalsaurediallylester behandelt.
Die Emulsion enthält 0,01 Masse% Dodezylsulfat und 0,1 Masse% C12-C14-Kalziumalkylbenzolsulfonat. Der Verbrauch an Präparat beträgt 10 kg/ha, Als Kontrolle dienen Pflanzen, behandelt mit einem Verdünner ohne Sterilisationsmittel.

SMILES	Kornzahl der Ähre bei freier Bestäubung [1]	Kornzahl der Ähre im Isolator [1]	Prozentsatz der Sterilität [1]	Prozentsatz des Ansetzens der Körner bei freier Bestäubung [1]	Kornzahl der Ähre bei freier Bestäubung [2]	Kornzahl der Ähre im Isolator [2]	Prozentsatz der Sterilität [2]	Prozentsatz des Ansetzens der Körner bei freier Bestäubung [2]
CCCCCCOC(=O)c1ccccc1C(=O)OCCCCCC [Beispiel 71, Phthalsäuredihexylester]	49,7	0,0	100,0%	94,8%				
CCCCOC(=O)c1ccccc1C(=O)OCCCC [Beispiel 68, Phthalsäuredibutylester]	48,6	0,0	100,0%	92,7%				
CC(C)COC(=O)c1ccccc1C(=O)OCC(C)C [Beispiel 69, Phthalsäurediisobutylester]	50,8	0,2	99,6%	96,9%				
CC1C=CCCC1C(=O)O (stereo not drawn) [Beispiel 73, Natriumsalz der 2-Methyl-3-zyklohex-enkarbonsäure]	50,1	0,0	100,0%	95,6%				
CCOC(=O)c1ccccc1C(=O)OCC [Beispiel 76, Phthalsäurediäthylester]					53,4	0,2	99,6%	97,8%
CC1C=CCCC1C(=O)O (stereo not drawn) [Beispiel 79, Ammoniumsalz der 2-Methyl-3-zyklohexenkarbon-säure]					51,7	0,0	100,0%	95,0%
COC(=O)C1CCC=CC1C (stereo not drawn) [Beispiel 72, 2-Methyl-3-zyklohexen-karbonsäuremethylester]	48,0	0,0	100,0%	91,6%				
CC(C)COC(=O)c1ccccc1C(=O)OCC(C)C [Beispiel 77, Phthalsaurediisobutylester]					52,8	0,0	100,0%	96,7%
C=CCOC(=O)c1ccccc1C(=O)OCC=C [Beispiel 81, Phthalsaurediallylester]					53,5	0,8	98,4%	97,9%
C=CCOC(=O)c1ccccc1C(=O)OCC=C [Beispiel 70, Phthalsäurediallylester]	51,2	0,1	99,8%	97,7%				
CC1C=CCCC1C(=O)O (stereo not drawn) [Beispiel 78, Kaliumsalz der 2-Methyl-3-zyklohexen-karbonsäure]					52,2	0,1	99,8%	95,6%
COC(=O)C1CCC=CC1C (stereo not drawn) [Beispiel 80, 2-Methyl-3-zyklohexenkarbonsäuremethylester]					50,2	0,0	100,0%	91,9%

— patent EP0364581A1, “METHOD OF STERILIZING PLANT POLLEN” (VSESOJUZNY NAUCHNO-ISSLEDOVATELSKY INST. SELSKOKHOZYAISTV. …, priority 1988, dated 1989)
